The results in this text go back to ChEMBL document CHEMBL3085716, “Hytramycins V and I, anti-Mycobacterium tuberculosis hexapeptides from a Streptomyces hygroscopicus strain” (J Nat Prod, 2013).

Structures are written as SMILES. Values after ≈ are worked out from the molar mass of the structure shown. A value given as a limit tells only on which side of the number the result lay.

Common to all, as to assay type: functional
The test system of experiment [1] is Mycobacterium tuberculosis. Kind of experiment: Antimycobacterial activity against Mycobacterium tuberculosis harboring luxABCDE under hypoxic condition after 10 days by MABA assay. The note with it: for MIC90: Mycobacterium tuberculosis, 240 h.
The test system of experiment [2] is Mycobacterium tuberculosis. Kind of experiment: Antimycobacterial activity against isoniazid-resistant Mycobacterium tuberculosis ATCC 35822 under normoxic condition after 7 days by MABA assay. Particulars: ATCC 35822, 168 h.
For experiment [3], the system named is Mycobacterium tuberculosis. Kind of experiment: Antimycobacterial activity against moxifloxacin-resistant Mycobacterium tuberculosis under normoxic condition after 7 days by MABA assay. The note with it: 168 h.
The test system of experiment [4] is Mycobacterium tuberculosis. Nature of the experiment: Antimycobacterial activity against capreomycin-resistant Mycobacterium tuberculosis under normoxic condition after 7 days by MABA assay. Particulars: 168 h.
Experiment [5] relates to Mycobacterium tuberculosis. Kind of experiment: Antimycobacterial activity against cycloserine-resistant Mycobacterium tuberculosis ATCC 35826 under normoxic condition after 7 days by MABA assay. The note with it: ATCC 35826, 168 h.
Experiment [6] concerns Mycobacterium tuberculosis. Kind of experiment: Ratio of MIC for Mycobacterium tuberculosis harboring luxABCDE under hypoxic condition in presence of 10% fetal bovine serum to MIC for Mycobacterium tuberculosis harboring luxABCDE under hypoxic condition in absence of 10% fetal bovine serum by MABA assay.
For experiment [7], the system named is Mycobacterium tuberculosis. Nature of the experiment: Antimycobacterial activity against rifampin-resistant Mycobacterium tuberculosis ATCC 35838 under normoxic condition after 7 days by MABA assay. Particulars: ATCC 35838, 168 h.
The subject of experiment [8] is Mycobacterium tuberculosis. Kind of experiment: Antimycobacterial activity against streptomycin-resistant Mycobacterium tuberculosis ATCC 35820 under normoxic condition after 7 days by MABA assay. Particulars: ATCC 35820, 168 h.
Experiment [9] relates to Mycobacterium tuberculosis. Kind of experiment: Antimycobacterial activity against Mycobacterium tuberculosis harboring luxABCDE under hypoxic condition after 10 days by MABA assay in presence of 10% fetal bovine serum. Particulars: 240 h.
Experiment [10] deals with Mycobacterium tuberculosis. Nature of the experiment: Ratio of MIC for Mycobacterium tuberculosis harboring luxABCDE under hypoxic condition in presence of 4% bovine serum albumin to MIC for Mycobacterium tuberculosis harboring luxABCDE under hypoxic condition in absence of 4% bovine serum albumin by MABA assay.
For experiment [11], the system named is Mycobacterium tuberculosis. Kind of experiment: Antimycobacterial activity against kanamycin-resistant Mycobacterium tuberculosis ATCC 35827 under normoxic condition after 7 days by MABA assay. The note with it: ATCC 35827, 168 h.
For experiment [12], the system named is Mycobacterium tuberculosis. Kind of experiment: Antimycobacterial activity against Mycobacterium tuberculosis harboring luxABCDE under hypoxic condition after 10 days by MABA assay in presence of 4% bovine serum albumin. The note with it: 240 h.

The compound `CC(C)C[C@@H]1NC(=O)[C@H]2CCCNN2C(=O)[C@H](C)N(C)C(=O)[C@H]2CCCNN2C(=O)[C@@H]2CCCNN2C(=O)[C@@H](C(C)C)NC1=O` displayed an MBC90 in experiment [1] of 19.5 µg/mL (≈ 30.8 µM). The MIC90 was 2.4 µg/mL (≈ 3.79 µM) in experiment [1]; 12.1 µg/mL (≈ 19.1 µM) in [2]; 9 µg/mL (≈ 14.2 µM) in experiment [3]; 12.1 µg/mL (≈ 19.1 µM) in experiment [4]; 20.6 µg/mL (≈ 32.5 µM) in experiment [5]; 9.6 µg/mL (≈ 15.1 µM) in [7]. Also, the MIC90 came out at 11.6 µg/mL (≈ 18.3 µM) in experiment [8], 20.9 µg/mL in experiment [9], 12.4 µg/mL (≈ 19.6 µM) in experiment [11] and 19.1 µg/mL in experiment [12]. In addition, the Ratio in [6] and in [10] was 10 in each case.

Turning to `CC[C@H](C)[C@H]1NC(=O)[C@H](CC(C)C)NC(=O)[C@H]2CCCNN2C(=O)[C@H](C)N(C)C(=O)[C@H]2CCCNN2C(=O)[C@@H]2CCCNN2C1=O`, in experiment [1], the MBC90 turned out to be 10.5 µg/mL (≈ 16.2 µM). For the same compound, the MIC90 in experiment [1] stood at 1.5 µg/mL (≈ 2.32 µM); in experiment [2], 4.7 µg/mL (≈ 7.26 µM); in [3], 4 µg/mL (≈ 6.17 µM); in experiment [4], 4.8 µg/mL (≈ 7.41 µM); in experiment [5], 7.4 µg/mL (≈ 11.4 µM); in experiment [7] it was 4.7 µg/mL (≈ 7.26 µM). Further, the MIC90 came to 4.7 µg/mL (≈ 7.26 µM) in experiment [8], 9.9 µg/mL in experiment [9], 4.9 µg/mL (≈ 7.56 µM) in experiment [11] and 10.8 µg/mL in experiment [12]. For the same compound, the Ratio in [6] and in experiment [10] was 10 in each case.

In the case of `NNC(=O)c1ccncc1` [ISONIAZID], the MIC90 in [1] was above 140 µg/mL; in experiment [2], above 1.1 µg/mL; in experiment [3], 0.1 µg/mL (≈ 0.729 µM); in [4], 0.1 µg/mL (≈ 0.729 µM); in [5] it was 0.03 µg/mL (≈ 0.219 µM); in [7], 0.1 µg/mL (≈ 0.729 µM). The MIC90 was 0.03 µg/mL (≈ 0.219 µM) in [8], above 140 µg/mL in experiment [9], 0.1 µg/mL (≈ 0.729 µM) in experiment [11] and above 140 µg/mL in experiment [12].

Regarding `Cc1ncc([N+](=O)[O-])n1CCO` [METRONIDAZOLE], the MIC90 in experiment [1], in experiment [2], in experiment [3], in experiment [4], in experiment [5] and in [7] was above 87.6 µg/mL each time. In addition, the MIC90 is above 87.6 µg/mL in [8], 5.3 µg/mL in experiment [9], above 87.6 µg/mL in experiment [11] and 13.5 µg/mL in [12].

`CO[C@H]1/C=C/O[C@@]2(C)Oc3c(C)c(O)c4c(O)c(c(/C=N/N5CCN(C)CC5)c(O)c4c3C2=O)NC(=O)/C(C)=C\C=C\[C@H](C)[C@H](O)[C@@H](C)[C@@H](O)[C@@H](C)[C@H](OC(C)=O)[C@@H]1C` [RIFAMPIN] yielded an MBC90 in experiment [1] of 0.5 µg/mL (≈ 0.608 µM). The MIC90 in experiment [1] is below 0.1 µg/mL; in experiment [2], 0.01 µg/mL (≈ 0.0122 µM); in [3], 0.1 µg/mL (≈ 0.122 µM); in [4] it was 0.04 µg/mL (≈ 0.0486 µM); in [5], below 0.01 µg/mL; in experiment [7], above 3.3 µg/mL. In addition, the MIC90 in experiment [8] was below 0.01 µg/mL; in [9], 0.1 µg/mL; in experiment [11], below 0.01 µg/mL; in [12], 0.2 µg/mL.

On to `CN[C@@H]1[C@H](O[C@H]2[C@H](O[C@H]3[C@H](O)[C@@H](O)[C@H](N=C(N)N)[C@@H](O)[C@@H]3N=C(N)N)O[C@@H](C)[C@]2(O)C=O)O[C@@H](CO)[C@H](O)[C@H]1O` [STREPTOMYCIN], for which the MIC90 in [1] came out at 0.6 µg/mL (≈ 1.03 µM); in experiment [2] it was 0.1 µg/mL (≈ 0.172 µM); in [3] it was 0.5 µg/mL (≈ 0.86 µM); in experiment [4], 1.1 µg/mL (≈ 1.89 µM); in [5] it was 0.4 µg/mL (≈ 0.688 µM); in experiment [7], 0.1 µg/mL (≈ 0.172 µM). Also, the MIC90 in experiment [8] is above 9.3 µg/mL; in experiment [9] it was 0.6 µg/mL; in experiment [11], 1.1 µg/mL (≈ 1.89 µM); in experiment [12], 0.4 µg/mL.
